According to patent US20250221953A1 (The University of Chicago, priority 2022, published 2025):

System: Jurkat T cells
Type: cell-based, human
Conditions: IL-2 production level in treated group compared to control group; 48 hours treatment, then anti-CD3/anti-CD28 12 hours
Description: Two preliminary screens were designed and performed.
To construct “blood chemical compound library for cell-based screening purposes, components such as antibodies that are difficult to distinguish due to a wide variety, and some supplements that only function at a whole organism level including fish oils and herbs were excluded. Physiological ranges of serum levels of individual blood chemicals are available in the human metabolome database (https://hmdb.ca/) and applied in the experimental design. For first screen 1a, Jurkat T cells were treated with blood chemical library for 48 hours and then activated with 2.5 μg/mL anti-CD3 and 0.5 μg/mL anti-CD28 antibodies for another 12 hours, followed by measurement of IL-2 level in medium supernatant using ELISA kit (Biolegend). For first screen 1b, 1×10^5 PD-1^+ Jurkat T cells were co-cultured with 2×10^4 H596 (PD-L1^+) cells in a well of 96-well plate for 60 hours, and then activated with 2.5 μg/mL anti-CD3 and 0.5 μg/mL anti-CD28 antibodies for another 12 hours, followed by measurement of IL-2 level in medium supernatant using ELISA kit. Please also refer to Resources Table and Table 1-2 for more details.

Row | Molecule | Relative changed percentage (%)
1 | [Cl][Hg][Cl] [MERCURY(II) CHLORIDE] | −2.995
2 | O=C([O-])CC(O)(CC(=O)[O-])C(=O)[O-].[Na+].[Na+].[Na+] [Sodium citrate] | 13.84
3 | CC1=C(/C=C/C(C)=C/C=C/C(C)=C/C=C/C=C(C)/C=C/C=C(C)/C=C/C2=C(C)C[C@@H](O)CC2(C)C)C(C)(C)C[C@H](O)C1 [Zcaxanthin] | −1.652
4 | CC[C@H](C)[C@H](NC(=O)[C@H](Cc1ccc(O)cc1)NC(=O)[C@@H](NC(=O)[C@H](CCCNC(=N)N)NC(=O)[C@@H](N)CC(=O)O)C(C)C)C(=O)N[C@@H](Cc1cnc[nH]1)C(=O)N1CCC[C@H]1C(=O)N[C@@H](Cc1ccccc1)C(=O)O [ANGIOTENSIN II HUMAN] | 17.25
5 | O=C(O)CCCCC1CCSS1 (racemic) [DL-6,8-Thioctic Acid] | −4.135
6 | Bilirubin Mixed Isomers | −37.62
7 | O=C([O-])[O-].[Ca+2] [Calcium Carbonate] | −8.75
8 | Cl.NCCCC[C@H](N)C(=O)O [L-Lysine hydrochloride] | −1.605
9 | FERRITIN TYPE IV FROM HUMAN LIVER | 9.075
10 | CC1=C(C/C=C(\C)CCC[C@H](C)CCC[C@H](C)CCCC(C)C)C(=O)c2ccccc2C1=O [VITAMIN K1] | 10.13
11 | CHITIN | 5.909
12 | CC(O)CC(=O)O (stereo not shown) [3-HYDROXYBUTYRIC ACID] | 5.082
13 | COC1=C(OC)C(=O)C(C/C=C(\C)CC/C=C(\C)CC/C=C(\C)CC/C=C(\C)CC/C=C(\C)CC/C=C(\C)CC/C=C(\C)CC/C=C(\C)CC/C=C(\C)CCC=C(C)C)=C(C)C1=O [CoQ-10] | 26.54
14 | Cc1ncc(CO)c(CO)c1O [PYRIDOXINE] | 11.1111
15 | CC1=C[C@H](O)CC(C)(C)C1/C=C/C(C)=C/C=C/C(C)=C/C=C/C=C(C)/C=C/C=C(C)/C=C/C1=C(C)CCCC1(C)C (stereo partly shown) [A-CRYPTOXANTHIN] | 29.1
16 | O=C(O)[C@@H]1CCCN1 [L-Proline] | −3.935
17 | Silicic acid | −1.03
18 | c1cncnc1 [PYRIMIDINE] | 4.127
19 | CC/C=C\C/C=C\C/C=C\C/C=C\CCCCC(=O)O [Stearidonic Acid] | 109.3
20 | [Cl][Cr]([Cl])[Cl] [Chromium Chloride] | −35.28
21 | CC1=C(/C=C/C(C)=C/C=C/C(C)=C/C=C/C=C(C)/C=C/C=C(C)/C=C/C2=C(C)C(=O)[C@@H](O)CC2(C)C)C(C)(C)C[C@H](O)C1=O [Astaxanthin] | 12.26
22 | N[C@@H](CS)C(=O)O [L-Cysteine] | 32.82
23 | Cc1ncc(C[n+]2csc(CCOP(=O)(O)OP(=O)(O)O)c2C)c(N)n1 [TIIIAMINE PYROPIIOSPIIATE] | 9.753
24 | N[C@@H](CCC(=O)N[C@@H](CS)C(=O)NCC(=O)O)C(=O)O [L-glutathione] | 13.46
25 | COc1ccc2[nH]cc(CCNC(C)=O)c2c1 [MELATONIN CRYSTALLINE/melatonin, melatonin] | 56.15
26 | C/C=C/C=C/C(=O)[O-].[K+] [Potassium sorbate] | −2.288

Row | Molecule | Relative changed percentage (%)
27 | CC(=O)CC(=O)[O-].[Li+] [LITHIUM ACETOACETATE/Acetoacetic acid, LITHIUM ACETOACETATE] | −21.48
28 | NCCc1c[nH]cn1 [HISTAMINE FREE BASE CRYSTALLINE, HISTAMINE FREE BASE] | −3.594
29 | ALPHA 1 ANTITRYPSIN, HUMAN PLASMA | −10.6
30 | N[C@@H](Cc1ccccc1)C(=O)O [L-Phenylalanine] | −17.2378
31 | CC1=C(/C=C/C(C)=C/C=C/C(C)=C/C=C/C=C(C)/C=C/C=C(C)/C=C/C2=C(C)C[C@@H](O)CC2(C)C)C(C)(C)CCC1 [BETA-CRYPTOXANTHIN] | 24.88
32 | CC(=O)OCC[N+](C)(C)C.[Cl-] [ACE[…]] | −8.939
33 | C[C@]12CCC(=O)C=C1CC[C@@H]1[C@@H]2CC[C@@]2(C)[C@H]1CC[C@]2(O)C(=O)CO [11-DEOXYCORTISOL/Cortexolone, 11-DEOXYCORTISOL] | 21.85
34 | CC(=O)[C@@]1(O)CC[C@H]2[C@@H]3CCC4=CC(=O)CC[C@]4(C)[C@H]3CC[C@@]21C [17A-HYDROXYPROGESTERONE] | 41.36
35 | C[N+](C)(C)CCO.[Cl-] [Choline Chloride] | −41.11
36 | OC[C@H]1O[C@@](CO)(O[C@H]2O[C@H](CO)[C@@H](O)[C@H](O)[C@H]2O)[C@@H](O)[C@@H]1O [SUCROSE] | 70.45
37 | Oc1ccccc1 [PHENOL] | 26.79
38 | CCCC/C=C\CCCCCCCC(=O)O [Myristoleic acid] | −21.38
39 | CC(C)=O [ACETONE] | −31.07
40 | Nc1nc2c(ncn2[C@@H]2O[C@@H]3COP(=O)([O-])O[C@H]3[C@H]2O)c(=O)[nH]1.[Na+] [GUANOSINE 3′:5′-CYCLIC MONOPIIOSPIIATE SODIUM] | 8.266
41 | CCCCC/C=C\C/C=C\C/C=C\C/C=C\CCCC(=O)O [Arachidonic acid] | 4.583
42 | CC(C)=CCC/C(C)=C/C=C/C(C)=C/C=C/C(C)=C/C=C/C=C(C)/C=C/C=C(C)/C=C/C=C(\C)CCC=C(C)C [Lycopene] | 30
43 | O=[Se](O)O [sodium selenite] | 13.27
44 | LEPTIN | 27.09
45 | CC(=O)C(=O)O [PYRUVIC ACID] | 10.42
46 | CC(=O)N[C@H]1C(O)O[C@H](CO)[C@@H](O)[C@@H]1O (stereo partly drawn) [N-acetyl D-glucosamine] | −4.044
47 | N[C@@H](Cc1cc(I)c(Oc2cc(I)c(O)c(I)c2)c(I)c1)C(=O)O [L-THYROXINE] | 18.7243
48 | O=C(O)c1cccnc1 [Nicotinic Acid] | 205.6
49 | COc1cc(CNC(=O)CCCC/C=C/C(C)C)ccc1O [Capsaicin] | 1.661
50 | Cl.NCCc1c[nH]c2ccc(O)cc12 [-HYDROXYTRYPTAMINE HYDROCHLORIDE] | −22.39
51 | androsterone [AN[…],/androsterone] | 15.91
52 | Oc1ccc(C=Cc2cc(O)cc(O)c2)cc1 [Resveratrol] | 13.16
